Laboratory results taken from PubChem BioAssay AID250 (DTP/NCI, 2004).
Where “and” joins values, the source holds several entries; their conditions need not be identical. Equal entries are not always repeated. Toxic doses and inconclusive results are not listed.

System: BDF1 mice, L1210 leukemia sc, survival T/C
Experiment: NCI In Vivo Anticancer Drug Screen. Data for tumor model L1210 Leukemia (subcutaneous) in B6D2F1 (BDF1) mice
Conditions: higher = longer survival
Summary of the method: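 Read-out: T/C ratio, i.e. survival or tumor size in treated mice over that in vehicle-treated controls, from mice bearing transplantable tumors.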

[1] = endpoint: median survival time, dose: 180.0 mg/kg/injection, schedule: Q01DX Z (sc), vehicle: methylcellulose (MC)
[2] = endpoint: median survival time, dose: 23.0 mg/kg/injection, schedule: Q01DX Z (sc), vehicle: saline
[3] = endpoint: median survival time, dose: 300.0 mg/kg/injection, schedule: Q01DX Z (sc), vehicle: methylcellulose (MC)
[4] = endpoint: median survival time, dose: 500.0 mg/kg/injection, schedule: Q01DX Z (sc), vehicle: methylcellulose (MC)
[5] = endpoint: median survival time, dose: 8.4 mg/kg/injection, schedule: Q01DX Z (sc), vehicle: carboxymethylcellulose (CMC)
[6] = endpoint: median survival time, dose: 23.0 mg/kg/injection, schedule: Q01DX Z (sc), vehicle: carboxymethylcellulose (CMC)

CC[C@H]1CN2CCc3cc(OC)c(OC)cc3[C@@H]2C[C@@H]1C[C@H]1NCCc2cc(OC)c(OC)cc21
T/C (endpoint: median survival time, dose: 0.39 mg/kg/injection, schedule: Q03HX003 (sc), vehicle: saline): 107 % of control
T/C (endpoint: median survival time, dose: 0.65 mg/kg/injection, schedule: Q03HX003 (sc), vehicle: saline): 92 % of control
T/C (endpoint: median survival time, dose: 1.08 mg/kg/injection, schedule: Q03HX003 (sc), vehicle: saline): 100 % of control
T/C (endpoint: median survival time, dose: 1.8 mg/kg/injection, schedule: Q01DX009 (sc), vehicle: saline): 100 % of control
T/C (endpoint: median survival time, dose: 1.8 mg/kg/injection, schedule: Q03HX003 (sc), vehicle: saline): 114 % of control
T/C (endpoint: median survival time, dose: 3.0 mg/kg/injection, schedule: Q01DX009 (sc), vehicle: saline): 103 % of control
T/C (endpoint: median survival time, dose: 5.0 mg/kg/injection, schedule: Q04DX003 (sc), vehicle: saline): 96 % of control
T/C (endpoint: median survival time, dose: 8.4 mg/kg/injection, schedule: Q04DX003 (sc), vehicle: saline): 107 % of control
T/C (endpoint: median survival time, dose: 16.0 mg/kg/injection, schedule: Q01DX001 (ip), vehicle: acid diluted with saline): 124 % of control

Cn1c(O)c(N=NC(N)=S)c2ccccc21
T/C (endpoint: median survival time, dose: 5.0 mg/kg/injection, schedule: Q01DX Z (sc), vehicle: methylcellulose (MC)): 100 % of control
T/C (endpoint: median survival time, dose: 8.4 mg/kg/injection, schedule: Q01DX Z (sc), vehicle: methylcellulose (MC)): 100 % of control
T/C (endpoint: median survival time, dose: 14.0 mg/kg/injection, schedule: Q01DX Z (sc), vehicle: methylcellulose (MC)): 100 % of control
T/C (endpoint: median survival time, dose: 23.0 mg/kg/injection, schedule: Q01DX Z (sc), vehicle: methylcellulose (MC)): 100 % of control
T/C (endpoint: median survival time, dose: 39.0 mg/kg/injection, schedule: Q01DX Z (sc), vehicle: methylcellulose (MC)): 100 % of control
T/C (endpoint: median survival time, dose: 65.0 mg/kg/injection, schedule: Q01DX Z (sc), vehicle: methylcellulose (MC)): 100 % of control
T/C (endpoint: median survival time, dose: 108.0 mg/kg/injection, schedule: Q01DX Z (sc), vehicle: methylcellulose (MC)): 100 % of control
T/C [1]: 100 % of control

Nc1nc2c(c(=O)[nH]1)N=C(CNc1ccc(C(=O)NC(CCC(=O)O)C(=O)O)cc1)CN2 (configuration not stated)
T/C (endpoint: mean survival time, dose: 1.0 mg/kg/injection, schedule: Q01DX009 (ip), vehicle: sodium bicarbonate): 95 % of control
T/C (endpoint: mean survival time, dose: 2.0 mg/kg/injection, schedule: Q01DX009 (ip), vehicle: sodium bicarbonate): 94 % of control
T/C (endpoint: mean survival time, dose: 4.0 mg/kg/injection, schedule: Q01DX009 (ip), vehicle: sodium bicarbonate): 98 % of control
T/C (endpoint: mean survival time, dose: 4.0 mg/kg/injection, schedule: Q04DX003 (ip), vehicle: sodium bicarbonate): 98 % of control
T/C (endpoint: mean survival time, dose: 8.0 mg/kg/injection, schedule: Q01DX009 (ip), vehicle: sodium bicarbonate): 94 % of control
T/C (endpoint: mean survival time, dose: 8.0 mg/kg/injection, schedule: Q04DX003 (ip), vehicle: sodium bicarbonate): 100 % of control
T/C (endpoint: mean survival time, dose: 16.0 mg/kg/injection, schedule: Q01DX009 (ip), vehicle: sodium bicarbonate): 102 % of control
T/C (endpoint: mean survival time, dose: 16.0 mg/kg/injection, schedule: Q04DX003 (ip), vehicle: sodium bicarbonate): 96 % of control
T/C (endpoint: mean survival time, dose: 32.0 mg/kg/injection, schedule: Q04DX003 (ip), vehicle: sodium bicarbonate): 98 % of control
T/C (endpoint: mean survival time, dose: 64.0 mg/kg/injection, schedule: Q04DX003 (ip), vehicle: sodium bicarbonate): 96 % of control

COC(=O)[C@@H]1c2cc3c(c(O)c2[C@@H](OC2OC(C)C(OC)C(C)(OC)C2OC)C[C@]1(C)O)C(=O)c1c(O)cc2c(c1C3=O)O[C@H]1O[C@]2(C)[C@H](O)[C@@H](N(C)C)[C@@H]1O (some centres not stated)
T/C (endpoint: median survival time, dose: 3.0 mg/kg/injection, schedule: Q01DX Z (sc), vehicle: saline): 105 % of control
T/C (endpoint: median survival time, dose: 5.0 mg/kg/injection, schedule: Q01DX Z (sc), vehicle: saline): 100 % of control
T/C (endpoint: median survival time, dose: 8.4 mg/kg/injection, schedule: Q01DX Z (sc), vehicle: saline): 100 % of control
T/C (endpoint: median survival time, dose: 14.0 mg/kg/injection, schedule: Q01DX Z (sc), vehicle: saline): 90 % of control
T/C [2]: 90 % of control

CN(Cc1cnc2nc(N)nc(N)c2n1)c1c(Cl)cc(C(=O)NC(CCC(=O)O)C(=O)O)cc1Br (configuration not stated)
T/C (endpoint: median survival time, dose: 1.8 mg/kg/injection, schedule: Q## X Z (sc), vehicle: other): 266 % of control
T/C (endpoint: median survival time, dose: 3.0 mg/kg/injection, schedule: Q## X Z (sc), vehicle: other): 288 % of control
T/C (endpoint: median survival time, dose: 4.9 mg/kg/injection, schedule: Q01DX Z (ip), vehicle: other): 111 % of control
T/C (endpoint: median survival time, dose: 5.0 mg/kg/injection, schedule: Q01DX Z (sc), vehicle: other): 100 % of control
T/C (endpoint: median survival time, dose: 5.0 mg/kg/injection, schedule: Q## X Z (sc), vehicle: other): 422 % of control
T/C (endpoint: median survival time, dose: 8.3 mg/kg/injection, schedule: Q01DX Z (ip), vehicle: other): 122 % of control
T/C (endpoint: median survival time, dose: 8.4 mg/kg/injection, schedule: Q01DX Z (sc), vehicle: other): 111 % of control
T/C (endpoint: median survival time, dose: 8.4 mg/kg/injection, schedule: Q## X Z (sc), vehicle: other): 100 % of control
T/C (endpoint: median survival time, dose: 14.0 mg/kg/injection, schedule: Q01DX Z (sc), vehicle: other): 244 % of control
T/C (endpoint: median survival time, dose: 14.1 mg/kg/injection, schedule: Q01DX Z (ip), vehicle: other): 122 % of control
T/C (endpoint: median survival time, dose: 23.0 mg/kg/injection, schedule: Q01DX Z (sc), vehicle: other): 283 % of control and 300 % of control
T/C (endpoint: median survival time, dose: 23.4 mg/kg/injection, schedule: Q01DX Z (ip), vehicle: other): 283 % of control
T/C (endpoint: median survival time, dose: 38.9 mg/kg/injection, schedule: Q01DX Z (ip), vehicle: other): 305 % of control
T/C (endpoint: median survival time, dose: 39.0 mg/kg/injection, schedule: Q01DX Z (sc), vehicle: other): 322 % of control and 338 % of control
T/C (endpoint: median survival time, dose: 39.0 mg/kg/injection, schedule: Q## X Z (sc), vehicle: other): 104 % of control
T/C (endpoint: median survival time, dose: 64.8 mg/kg/injection, schedule: Q01DX Z (ip), vehicle: other): 300 % of control
T/C (endpoint: median survival time, dose: 65.0 mg/kg/injection, schedule: Q01DX Z (sc), vehicle: other): 316 % of control and 333 % of control
T/C (endpoint: median survival time, dose: 65.0 mg/kg/injection, schedule: Q## X Z (sc), vehicle: other): 104 % of control
T/C (endpoint: median survival time, dose: 107.0 mg/kg/injection, schedule: Q01DX Z (ip), vehicle: other): 244 % of control
T/C (endpoint: median survival time, dose: 108.0 mg/kg/injection, schedule: Q01DX Z (sc), vehicle: other): 211 % of control and 233 % of control
T/C (endpoint: median survival time, dose: 108.0 mg/kg/injection, schedule: Q## X Z (sc), vehicle: other): 104 % of control
T/C (endpoint: median survival time, dose: 179.0 mg/kg/injection, schedule: Q01DX Z (ip), vehicle: other): 177 % of control
T/C (endpoint: median survival time, dose: 180.0 mg/kg/injection, schedule: Q01DX Z (sc), vehicle: other): 166 % of control
T/C (endpoint: median survival time, dose: 180.0 mg/kg/injection, schedule: Q## X Z (sc), vehicle: other): 109 % of control
T/C (endpoint: median survival time, dose: 300.0 mg/kg/injection, schedule: Q## X Z (sc), vehicle: other): 114 % of control
T/C (endpoint: median survival time, dose: 500.0 mg/kg/injection, schedule: Q## X Z (sc), vehicle: other): 114 % of control

Cc1cc2nc3c(=O)[nH]c(=O)nc-3n(CC(O)C(O)C(O)C(O)CO)c2cc1C (configuration not stated)
T/C [1]: 100 % of control
T/C [3]: 100 % of control
T/C [4]: 100 % of control

Nc1ccc(O)cc1
T/C (endpoint: median survival time, dose: 130.0 mg/kg/injection, schedule: Q01DX Z (sc), vehicle: other): 95 % of control
T/C (endpoint: median survival time, dose: 216.0 mg/kg/injection, schedule: Q01DX Z (sc), vehicle: other): 116 % of control
T/C [3]: 112 % of control
T/C [4]: 112 % of control
T/C (endpoint: median survival time, dose: 600.0 mg/kg/injection, schedule: Q01DX Z (sc), vehicle: other): 87 % of control

Cc1cccc(C)c1NC(=O)N(CCCl)N=O
T/C [5]: 106 % of control
T/C [6]: 181 % of control
T/C (endpoint: median survival time, dose: 39.0 mg/kg/injection, schedule: Q01DX Z (sc), vehicle: carboxymethylcellulose (CMC)): 287 % of control
T/C (endpoint: median survival time, dose: 65.0 mg/kg/injection, schedule: Q01DX Z (sc), vehicle: carboxymethylcellulose (CMC)): 337 % of control
T/C (endpoint: median survival time, dose: 108.0 mg/kg/injection, schedule: Q01DX Z (sc), vehicle: carboxymethylcellulose (CMC)): 162 % of control

CCOC(=O)C(N)Cc1ccc(N(CCCl)CCCl)cc1 (configuration not stated)
T/C [2]: 110 % of control and 119 % of control
T/C (endpoint: median survival time, dose: 39.0 mg/kg/injection, schedule: Q01DX Z (sc), vehicle: saline): 104 % of control and 110 % of control
T/C (endpoint: median survival time, dose: 65.0 mg/kg/injection, schedule: Q01DX Z (sc), vehicle: saline): 100 % of control and 104 % of control
T/C (endpoint: median survival time, dose: 108.0 mg/kg/injection, schedule: Q01DX Z (sc), vehicle: saline): 90 % of control

O=NN(CCF)C(=O)NC1CCCCC1
T/C [5]: 289 % of control
T/C (endpoint: median survival time, dose: 14.0 mg/kg/injection, schedule: Q01DX Z (sc), vehicle: carboxymethylcellulose (CMC)): 347 % of control
T/C (endpoint: median survival time, dose: 23.0 mg/kg/injection, schedule: Q01DX Z (oral), vehicle: carboxymethylcellulose (CMC)): 321 % of control
T/C [6]: 305 % of control
T/C (endpoint: median survival time, dose: 39.0 mg/kg/injection, schedule: Q01DX Z (oral), vehicle: carboxymethylcellulose (CMC)): 242 % of control
T/C (endpoint: median survival time, dose: 65.0 mg/kg/injection, schedule: Q01DX Z (oral), vehicle: carboxymethylcellulose (CMC)): 163 % of control
T/C (endpoint: median survival time, dose: 108.0 mg/kg/injection, schedule: Q01DX Z (oral), vehicle: carboxymethylcellulose (CMC)): 121 % of control
